What all share (format): cell-based, human
Details in all cases: for β-Gal: liposome-DNA complex, with serum

Assay [1] relates to T98-G cells. In words: pCMV-β-Gal plasmid DNA transfection mediated by ST1223 cationic liposomes, β-galactosidase by ELISA, T98-G cells. As for the experimental part: (§1) Liposomes were prepared starting with 200 mg of ST1223, synthesised according to the procedure described in EXAMPLE 1 and solubilised in 50 mL of chloroform (solubilisation phase). The solvent was then eliminated under vacuum for one night (t 30-40° C.; 400-700 mm Hg). The sample was hydrated with deionised water to a final concentration of 5 mM (hydration phase). The liposomes were then subjected to sonication for 1 h at 10-second intervals using a sonication bath. The liposomes thus prepared produced unilaminar vesicles.
(§2) The liposome-DNA complex was prepared by mixing the two solutions A and B described here below:
(§3) Solution A: 2.5 μg of plasmid DNA (pCMV/β- Gal, 7200 base pairs, used for the expression of the enzyme β-galactosidase) were diluted sterilely in 50 μl of HBS (HEPES 20 mM; NaCl 150 mM, pH 7.4)
(§4) Solution B: the liposome, prepared according to EXAMPLE 7, was diluted in distilled H2O to a concentration of 1.29 mM and 15 μL of this solution were diluted in 50 µL of distilled H2O).
(§5) The two solutions were mixed by stirring gently and incubated for 10-30 min at room temperature.
(§6) pCMV-β-Gal DNA transfection mediated by cationic liposomes in the various cell lines HeLa, MCF-7, Caco2, and T98-G was performed at different cell densities: 100,000 cells/dish 200.000 cells/dish and 300.000 cells/dish.
(§7) HeLa, MCF-7, Caco2 and T98-G cells were grown for 48 h (37° C., 5% CO2) in the following growth media:
T98-G cells EMEM (Essential Minimum Eagle Medium, SIGMA catalogue), 10% fetal calf serum, 1% L-glutamine, 1% streptomycin, 1% penicillin.
(§8) Cells were plated at different densities (100.000 cells/dish, 200.000 cells/dish, 300.000 cells/dish) in Petri dishes (Corning or Falcon) measuring approximately 3 cm in diameter and incubated in 2 mL of medium for 18 h before being treated.
(§9) After replacing the medium with 2 mL of fresh medium, […] of the liposome-DNA complex, prepared as described in EXAMPLE 8, were added to each dish; after gentle stirring, the dishes were placed in a thermostat for 5 h (37° C., 5% CO2). Later, the cells were washed three times with 5 mL PBS buffer (Gibco catalogue) per dish and incubated for 16 h (37° C., 5% CO2).
(§10) After washing the cells three times with 5 mL PBS buffer (Gibco catalogue) per dish, total proteins were extracted and 50 μg of these were loaded per well in order to determine β-galactosidase production by immunoassay (β-Gal ELISA Kit, Boehringer).

Assay [2] deals with Caco2 cells. Kind of assay: pCMV-β-Gal plasmid DNA transfection mediated by ST1223 cationic liposomes, β-galactosidase by ELISA, Caco2 cells. As for the experimental part:
as §1, §2, §3, §4, §5, §6, §7
Caco2 cells EMEM (Essential Minimum Eagle Medium, SIGMA catalogue), 15% fetal calf serum, 1% L-glutamine, 1% streptomycin, 1%, penicillin
as §8, §9, §10
For orientation: An ELISA detects its analyte on a solid surface through an enzyme-linked reagent.

The subject of assay [3] is MCF-7 cells. In words: pCMV-β-Gal plasmid DNA transfection mediated by ST1223 cationic liposomes, β-galactosidase by ELISA, MCF-7 cells. As for the experimental part: as §1, §2, §3, §4, §5, §6, §7
MCF-7 cells DMEM (Dulbecco Modified Eagle Medium, SIGMA catalogue), 10% fetal calf serum, 1% L-glutamine, 1% streptomycin, 1% penicillin
as §8, §9, §10

Assay [4] deals with HeLa cells. In words: pCMV-β-Gal plasmid DNA transfection mediated by ST1223 cationic liposomes, β-galactosidase by ELISA, HeLa cells. As for the experimental part: as §1, §2, §3, §4, §5, §6, §7
HeLa cells RPMI-1640 (HyQ catalogue), 10% fetal calf serum, 1% L-glutamine, 1% streptomycin, 1% penicillin
as §8, §9, §10

Each structure is given as a SMILES string.

For `CCCCCCCCCCC(=O)O[C@H](CC(=O)OCCC(F)(F)C(F)(F)C(F)(F)C(F)(F)C(F)(F)C(F)(F)C(F)(F)C(F)(F)F)C[N+](C)(C)C.[Cl-]` [ST1223, undecanoyl-L-carnitine chloride 1,1H-2,2H-hepatdecafluorodecyl ester], the “cell density of greatest transfection efficiency” value in assay [1] stood at 300.000 cells/dish; in assay [2] it was 100.000 cells/dish; in assay [3], 200.000 cells/dish; in assay [4], 200.000 cells/dish. Also, the β-Gal in assay [1] (density 100.000 cells/dish) came to 126 pg/dish; in assay [1] (density 200.000 cells/dish) it was 330 pg/dish; in assay [1] (density 300.000 cells/dish), 491 pg/dish; in assay [2] (density 100.000 cells/dish), 422 pg/dish; in assay [2] (density 200.000 cells/dish) it was 395 pg/dish; in assay [2] (density 300.000 cells/dish) it was 385 pg/dish. In addition, the β-Gal is on record as 234 pg/dish in assay [3] (density 100.000 cells/dish); 422 pg/dish in assay [3] (density 200.000 cells/dish); 409 pg/dish in assay [3] (density 300.000 cells/dish); 87 pg/dish in assay [4] (density 100.000 cells/dish); 303 pg/dish in assay [4] (density 200.000 cells/dish); 83 pg/dish in assay [4] (density 300.000 cells/dish).

These data come from patent US6476243B1, “Perfluorinated esters of alkanoyl L-carnitine for the preparation of cationic lipids for the intracellular delivery of pharmacologically active compounds” (Sigma-Tau Industrie Farmaceutiche Riunite S.p.A., priority 1998, dated 2002).
